SMILES strings stand for the structures. Read-outs that look alike come from different tables or passages of the source.

What is called IC50 is the midpoint of a concentration-inhibition curve. A word on the inhibition: it is the percentage by which the read-out fell short of the control.

Assay [1] deals with MDA‐MB‐231. The assay can be described thus: MTT cytotoxicity assay in MDA-MB-231. In kind it is cell-based, human. The conditions noted are these: for IC50: 48 h, read-out: IC50 (μM) in MDA‐MB‐231 (mean ± SD). As for the experimental part:
(§1) TNBC cell lines (ER^−, PR^−, HER2^−)—MDA‐MB‐231 (ATCC HTB‐26) and MDA‐MB‐468 (ATCC HTB‐132) were procured from ATCC and cultured in Roswell Park Memorial Institute Media (RPMI‐1640) and Dulbecco's Modified Eagle's Medium (DMEM), respectively, supplemented with 10% FBS and 1% Penicillin–Streptomycin solution. Cells were maintained at 5% CO2 at 37°C in a humid atmosphere.[6], [26] The control cell line, Human Embryonic Kidney—HEK‐293 (ATCC CRL‐3216) was also obtained from ATCC and cultured in DMEM.[5], [25]
(§2) To evaluate the cytotoxicity profile of the potential EGFR inhibitors (compounds) against TNBC cell lines—MDA‐MB‐231, MDA‐MB‐468, and control cell line HEK293, cells were seeded at a cell density of 5 × 10^3 cells/well in complete medium onto 96‐well plates. Here, the non‐tumoral human embryonic kidney (HEK293) epithelial cells have been utilized as a control cell line to compare the IC50 values of the compounds between cancerous and non‐cancerous cell lines with a big therapeutic window. The use of HEK293 cells as compared to other non‐cancerous cell lines are easy to maintain in culture and the results obtained from HEK293 are highly reproducible and consistent.[27] Briefly, the cells were incubated at 37°C for 12 h to attain morphology. After 12 h, cells were serum starved by replacing the complete media with media containing 2% FBS to synchronize the cells. Post‐12 h of synchronization, cells were treated with an increasing concentration (0.1, 1, 10, 100 μM) of all the compounds (1a, 1b, 1c, 1d, 1e, 1f, 1g, 1h, 1i, 1j, 1k). Separately, TNBC cells were treated with increasing concentration (0.01, 0.1, 1 μM) of Doxorubicin (Sigma‐Aldrich, St Louis, MO, USA) in presence of the selected compounds (1c, 1e, 1g, 1h, 1j, and 1k) at 5 μM concentration or combination of selected compounds (1c, 1e, 1g, 1h, 1j, and 1k) at increasing concentration (1, 2.5, 5, 10 μM) in presence of Doxorubicin (0.01 μM) for 48 h. In addition, the CD24^+‐breast cancer cells and CD24^−/CD44^+‐breast CSC populations, being sorted by Magnetic Activated Cell Sorting (MACS) from MDA‐MB‐231 cells as described previously,[6] were also treated with increasing concentrations of Doxorubicin (0.01–1 μM), in the presence or absence of 1e (10–30 μM), or PD153035 (10 μM) (Sigma‐Aldrich, St Louis, MO, USA). MTT assay was performed to evaluate the cytotoxicity of these compounds against the TNBC cell lines, and the sorted populations as described previously.[6] All the experiments were performed thrice and the IC50 values of the compounds and Doxorubicin were calculated using GraphPad Prism software version 9 (San Diego, CA, USA). Similarly, the percent inhibition of the sorted cell populations by chemotherapeutic drug, doxorubicin in the absence/presence of potent compound 1e or standard EGFR inhibitor, PD153035 was evaluated utilizing GraphPad Prism Version 9 (San Diego, CA, USA).
(Tetrazolium dyes change colour on reduction, which living cells bring about.)

In assay [2] the test system is MDA‐MB‐468. The assay can be described thus: MTT cytotoxicity assay in MDA-MB-468. Format: cell-based, human. The conditions noted are these: for IC50: 48 h, read-out: IC50 (μM) in MDA‐MB‐468 (mean ± SD); for decrease in the IC50 of Doxorubicin in the presence of the compound: MDA-MB-468, versus Doxorubicin alone. The procedure:
as §1, §2

The next assay relates to HEK‐293. Nature of the assay: MTT cytotoxicity assay in control cell line HEK-293. Conditions: non-tumoral control cell line, read-out: IC50 (μM) in HEK‐293 (mean ± SD). Format: cell-based, human. As for the experimental part:
as §1, §2

Assay [3] relates to MDA‐MB‐468. The assay can be described thus: Cell migration (chemotaxis), Boyden-Chamber assay. Format: cell-based, human. The conditions noted are these: Doxorubicin 0.01 μM + compound 5 μM (PD153035 10 μM) vs 10% FBS and Doxorubicin alone. The procedure:
(§3) TNBC cell lines—MDA‐MB‐231, MDA‐MB‐468, and the sorted CD24^+‐breast cancer cells, and CD24^−/CD44^+‐breast CSC populations from MDA‐MB‐231 [6] were seeded at a density of 1 × 10^6 cells/well to evaluate their migratory potential by Boyden‐Chamber assay. […] At the end of the treatment period, the cells were plated at a density of 5 × 10^3 cells/well in the upper chamber of the Boyden chamber assembly and 10% FBS in the lower chamber was used as a chemoattractant. Separately, the cells in the upper chamber were treated with Doxorubicin (0.01–0.1 μM) alone or with the potential EGFR inhibitors (compounds—1c, 1e, 1g, 1h, 1j, and 1k (5 μM) based on their low IC50 values) or a commercial EGFR inhibitor, PD153035 (10 μM) and incubated for 4 h followed by fixation and staining as described previously.[28], [29]

In assay [4] the test system is MDA‐MB‐231. The assay can be described thus: Cell migration (chemotaxis), Boyden-Chamber assay. Conditions: Doxorubicin 0.01 μM + compound 5 μM (PD153035 10 μM) vs 10% FBS and Doxorubicin alone. Format: cell-based, human. As for the experimental part: as §3
For assay [5], the system named is Bax and Cytochrome‐C in MDA‐MB‐231 cells. Nature of the assay: Gene expression of apoptotic genes, semi-quantitative RT-PCR. Format: cell-based, human. The conditions noted are these: MDA-MB-231, doxorubicin + compound 5 μM, 24 h. The procedure:
Briefly, the cells were incubated at 37°C with serum starvation followed by culturing as described above. […] Briefly, the template RNA (1 μg) was utilized for cDNA synthesis using a First‐strand cDNA synthesis kit (Thermo Scientific, USA) according to the manufacturer's protocol. Thermal cycler (Mastercycler® nexus, Eppendorf) was used for the amplification of the expression of apoptotic genes—Bax, Bcl2, Cytochrome‐C, and target gene EGFR with the help of Dream Taq DNA Polymerase PCR Master Mix (Thermo Scientific, USA) along with human gene‐specific forward and reverse primer sequences of the apoptotic genes and EGFR (Table ST1). The expression of the target genes was normalized to the Eukaryotic 18S rRNA.

In assay [6] the test system is CD24^−/CD44^+‐breast CSCs xenotransplanted tumors. The assay can be described thus: Preclinical orthotopic xenograft murine tumor model (tumor size, weight, H&E histology). Format: in vivo, C57BL/6 mice. Conditions: doxorubicin high dose 10 mg/kg intratumoral vs untreated breast CSCs transplanted group. As for the experimental part: Animal studies have been carried out with the prior approval of the Institutional Animal Ethics Committee (IICT/IAEC/025/2023). C57BL/6 female mice of age 6–8 weeks (N = 35) were initially immunosuppressed with cyclophosphamide (50 mg/kg of body weight, i.p) on alternate days for 2 weeks. For generating a preclinical orthotopic xenograft tumor model, 2 × 10^6 GFP expressing sorted stable CD24^+‐breast cancer cells and CD24^−/CD44^+‐breast CSCs were orthotopically xeno‐transplanted subcutaneously at the fourth mammary fat pad of immune‐suppressed mice (n = 5/group). Subsequently, intratumoral administration of Doxorubicin at a low dose (2.5 mg/kg of body weight), high dose (10 mg/kg of body weight), and/or combinatorial treatment of the potent EGFR inhibitor, compound 1e (50 mg/kg of body weight) or the commercial EGFR inhibitor, PD153035 (50 mg/kg of body weight) with a low dose of doxorubicin was performed to the palpable tumors of breast CSCs at day‐3 post‐transplantation.
Euthanization of mice was performed on day 14 post‐transplantation and tumor tissues were collected for histological and immunohistochemical analysis. Histological differences in tumor tissues were evaluated using hematoxylin and eosin staining (H&E).[28], [30]

With `c1ccc2c(C(c3c[nH]c4ccccc34)c3c[nH]c4ccccc34)c[nH]c2c1` [1b], the IC50 in the assay with MDA‐MB‐231 [1] (compound alone, MTT) is 22.1 ± 1.96 µM; in the assay with MDA‐MB‐468 [2] (compound alone, MTT) it was 90.8 ± 7.87 µM; in the assay on HEK‐293 (compound alone) it was 231 ± 15.9 µM.
Regarding `c1ccc2c(C(c3c[nH]c4ccccc34)C(c3c[nH]c4ccccc34)c3c[nH]c4ccccc34)c[nH]c2c1` [1g], the concentration for half-maximal inhibition (IC50) is not below 1000 µM with MDA‐MB‐231 [1] (compound alone, MTT); 29.6 ± 6.04 µM in the assay with MDA‐MB‐468 [2] (compound alone, MTT); not below 1000 µM in the assay on HEK‐293 (compound alone). Besides, the migratory potential entry in the assay with MDA‐MB‐468 [3] and with MDA‐MB‐231 [4] was “significant decrease” in each case. The “decrease in the IC50 of Doxorubicin in the presence of the compound” value (from here on “decrease in the IC50 of Doxorubicin”) in the assay on MDA‐MB‐468 [2] was found to be 10 fold. In addition, the “expression of pro‐apoptotic genes Bax and Cytochrome‐C” value (shortened to “expression”) in assay [5] is “marked increase”.
Consider `Oc1ccc(C(c2c[nH]c3ccccc23)c2c[nH]c3ccccc23)cc1` [1c], for which the half-maximal inhibitory concentration (IC50) with MDA‐MB‐231 [1] (compound alone, MTT) is 30.5 ± 2.93 µM; with MDA‐MB‐468 [2] (compound alone, MTT) it was 25 ± 2.41 µM; in the assay with HEK‐293 (compound alone), 127 ± 16.8 µM. Besides, the migratory potential result in the assay on MDA‐MB‐468 [3] and with MDA‐MB‐231 [4] was “significant decrease” each time. Besides, the “decrease in the IC50 of Doxorubicin” value in the assay on MDA‐MB‐468 [2] was determined as 10 fold. Besides, the “expression” value in assay [5] was “marked increase”.
As for `COc1cc(C(c2c[nH]c3ccccc23)c2c[nH]c3ccccc23)ccc1O` [1j], the half-maximal inhibitory concentration (IC50) in the assay with MDA‐MB‐231 [1] (compound alone, MTT) came to 114 ± 1.25 µM; in the assay with MDA‐MB‐468 [2] (compound alone, MTT), 68.4 ± 5.51 µM; with HEK‐293 (compound alone), 327 ± 20.7 µM. Moreover, the “decrease in the IC50 of Doxorubicin” value in the assay on MDA‐MB‐468 [2] was 10 fold. Moreover, the “expression” value in assay [5] is listed as “marked increase”.
Take `CN(C)c1ccc(C(c2c[nH]c3ccccc23)c2c[nH]c3ccccc23)cc1` [1f]: the 50% inhibitory concentration (IC50) in the assay on MDA‐MB‐231 [1] (compound alone, MTT) was 73 ± 1.13 µM; in the assay with MDA‐MB‐468 [2] (compound alone, MTT), 130 ± 7.76 µM; with HEK‐293 (compound alone) it was not below 1000 µM.
Turning to `c1ccc2c(C(c3ccc(C(c4c[nH]c5ccccc45)c4c[nH]c5ccccc45)cc3)c3c[nH]c4ccccc34)c[nH]c2c1` [1k, 1,4‐bis(di(1H‐indol‐3‐yl)methyl)benzene], the half-inhibitory concentration (IC50) in the assay on MDA‐MB‐231 [1] (Homo sapiens, MDA-MB-231, 48 h, compound alone, MTT) was found to be 14.7 ± 1.36 µM; in the assay with MDA‐MB‐468 [2] (Homo sapiens, MDA-MB-468, compound alone, MTT), 20.4 ± 2.41 µM; in the assay on HEK‐293 (Homo sapiens, HEK293, compound alone), 235 ± 12.5 µM. For the same compound, the “decrease in the IC50 of Doxorubicin” value in the assay on MDA‐MB‐468 [2] is 10 fold. In assay [5], the “expression” value is on record as “marked increase”.
For `c1ccc(C(c2c[nH]c3ccccc23)c2c[nH]c3ccccc23)nc1` [1d], the IC50 with MDA‐MB‐231 [1] (compound alone, MTT) came out at 44.4 ± 2.11 µM; in the assay with MDA‐MB‐468 [2] (compound alone, MTT) it was 47.6 ± 5.99 µM; in the assay with HEK‐293 (compound alone), 219 ± 11.6 µM.
`COc1cccc2c1C(=O)c1c(O)c3c(c(O)c1C2=O)C[C@@](O)(C(=O)CO)C[C@@H]3O[C@H]1C[C@H](N)[C@H](O)[C@H](C)O1` [Doxorubicin, reference compound]: the half-inhibitory concentration (IC50) with MDA‐MB‐231 [1] (Homo sapiens, MDA-MB-231, 48 h, IC50 of doxorubicin alone or in presence of compound at 5 μM) stood at 0.1 µM; in the assay on MDA‐MB‐231 [1] (IC50 of doxorubicin alone or in presence of compound at 5 μM) it was 0.11 ± 0.01 µM; in the assay on MDA‐MB‐468 [2] (Homo sapiens, MDA-MB-468, IC50 of doxorubicin alone or in presence of compound at 5 μM) it was 0.4 ± 0.008 µM. In addition, the inhibition at 0.01 µM turned out to be 21.1 ± 0.701% with MDA‐MB‐231 [1] (Homo sapiens, MDA-MB-231, Doxorubicin 0.01 µM alone, read-out: Percent inhibition (%) in MDA-MB-231 (Mean ± SEM)) and 19.1 ± 1.08% in the assay with MDA‐MB‐468 [2] (Homo sapiens, MDA-MB-468, Doxorubicin 0.01 µM alone, read-out: Percent inhibition (%) in MDA-MB-468 (Mean ± SEM)). Besides, the “tumor size and weight” value in assay [6] is “significantly lower”.

These data come from publication PMC10961089, “Epidermal growth factor receptor inhibition potentiates chemotherapeutics‐mediated sensitization of metastatic breast cancer stem cells” (Cancer Reports, 2024).
